Among the data in PubChem BioAssay (NCI) are TGI and GI50 values, retold here.

What all share (test): inhibition of tumour cell growth, NCI panel, 48 h
For assay [1], the system named is SK-MEL-5 melanoma.
Assay [2] has as its system HL-60(TB) leukemia.
Assay [3] deals with NCI-H226 lung.
Assay [4] has as its system HCT-15 colon.
For assay [5], the system named is PC-3 prostate.
For assay [6], the system named is HS 578T breast.
For assay [7], the system named is HT29 colon.
In assay [8] the test system is UO-31 renal.
In assay [9] the test system is KM12 colon.
The test system of assay [10] is SNB-75 CNS.
For assay [11], the system named is EKVX NSCLC.
Assay [12] relates to SN12C renal.

Molecules are shown by their SMILES. Several values for one entry are separate records, joined by “and”; a condition that tells them apart may be missing. Identical values can stand only once.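 Test compounds were applied to cells in 96-well plates for 48 hours at 5 doses. GI50 marks 50% less growth. TGI denotes the concentration required for complete inhibition of growth.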 Starred links: 1 amine or outer side, 2 acyl side, 3 side chain; linkers in the order of their positions; H or OH if unused. Positions of bridges follow the written chain, without caps; N, C: chain ends. Non-standard residues stand in square brackets, D forms with d. Residues, ends and D or L forms follow the SMILES beside them. Chains are numbered I, II in the order given. Actinocin(9to1) = Cc1c2oc3c(C)ccc(C(=O)[*:1])c3nc-2c(C(=O)[*:2])c(N)c1=O; NMeY = CN[CH](Cc1ccc(O)cc1)C(=O)O; Sar = CNCC(=O)O

For the molecule `N#C[C@H](c1ccccn1)c1nc2ccccc2nc1Cl`, the TGI in assay [1], in assay [2], in assay [3], in assay [4], in assay [5] and in [6] was over 100000 nM throughout. The TGI in assay [7], in [8], in [9], in [10], in assay [11] and in [12] was over 100000 nM throughout.
In the case of `Cc1c2oc3c(C)ccc(C(=O)NC4C(=O)NC(C(C)C)C(=O)N5CCCC5C(=O)N(C)CC(=O)N(C)C(Cc5ccc(O)cc5)C(=O)OC4C)c3nc-2c(C(=O)NC2C(=O)NC(C(C)C)C(=O)N3CCCC3C(=O)N(C)CC(=O)N(C)C(Cc3ccc(O)cc3)C(=O)OC2C)c(N)c1=O` (stereo not drawn) (I: TVP[Sar][NMeY] / II: TVP[Sar][NMeY]; ester I:1-I:C, II:1-II:C; linker I:N-II:N via Actinocin(9to1); configuration not given here), the GI50 in assay [1] was 22.7 nM and 6.12 nM; in assay [4], 988 nM and 116 nM; in assay [5], 40.7 nM and 11.5 nM; in [7], 8.59 nM and 2.67 nM; in assay [8] it was > 726 nM and 87.4 nM; in [10] it was 17.4 nM and 3.16 nM. In [11], the GI50 was 231 nM and 102 nM. In addition, the TGI in assay [1] is 221 nM and 25.2 nM; in assay [2], 94.7 nM; in assay [3], over 539 nM; in [4] it was over 1000 nM; in assay [5] it was over 1000 nM; in assay [6] it was 52.1 nM and 62.4 nM. Further, the TGI was 377 nM and > 412 nM in assay [7]; > 1000 nM and 459 nM in [8]; 536 nM and > 1000 nM in [9]; 278 nM and 228 nM in [10]; over 1000 nM in [11]; over 1000 nM in [12].
For `O=C(Nc1ccccc1)c1cc(S(=O)(=O)NC2=NC(c3ccccc3)c3cc(Cl)ccc3N2)c(SSc2cc(Cl)c(C(=O)Nc3ccccc3)cc2S(=O)(=O)NC2=NC(c3ccccc3)c3cc(Cl)ccc3N2)cc1Cl` (stereo not drawn), the TGI is over 100000 nM in [1]; over 53900 nM in assay [2]; over 100000 nM in assay [3]; over 100000 nM in [4]; over 100000 nM in assay [5]; over 100000 nM in assay [6]. Moreover, the TGI in assay [7], in assay [8], in assay [9], in [10], in assay [11] and in [12] was over 100000 nM throughout.
